# Data: US20150223453A1, “QUATERNARY AMMONIUM ACID COMPOUNDS AND COMPOSITIONS FOR DISINFECTION, SANITIZATION, AND CLEANING” (LONZA INC., priority 2014, published 2015)
# Test system: Pa
# Experiment: OECD Quantitative Method for Evaluating Bactericidal Activity of Microbiocides Used on Hard, Non-Porous Surfaces
# Type: cell-based, Pseudomonas aeruginosa
# Details: for level of efficacy / number of organisms reduced (in words): quaternary ammonium acid compounds based on different acids, summary of the OECD tests
# Description: One acknowledged method for determining micro efficacy is the OECD (Organisation for Economic Co-operation and Development) Quantitative Method for Evaluating Bactericidal Activity of Microbiocides Used on Hard, Non-Porous Surfaces. This method entails inoculating small, stainless steel disks called carriers with inoculum, in the presence of hard water. It is theorized that microorganisms, such as pseudomonas, form a biofilm on these carriers. Due to the size of the disk, the presence of a biofilm and the surface tension of the liquid on the disk, this requires qua-based systems to be generally over-formulated to achieve the required efficacy to pass testing. This provides an unfair advantage to both acids and oxidizers used as biocides because of their innate ability to oxidize steel, remove the biofilm without being affected by hard water. This invention combats this issue by combining the biocidal power of quaternary ammonium compound with the oxidizing power of acid.
# [1] = 800 ppm Active/375 ppm Hard Water/5% Organic Soil/5 Minute Contact Time
Compound,"OECD results of Quaternium Ammonium Acid Molecule, Test 1 [1]","OECD results of Quaternium Ammonium Acid Molecule, Test 2 [1]",level of efficacy / number of organisms reduced (in words),other results
CC(=O)[O-].CCCCCCCCCC[N+](C)(C)CCCCCCCCCC [Acetic],5.71,4.93,greatest level of efficacy,level of efficacy / number of organisms reduced (in words) (listed as acetic acid): highest number of organisms reduced
CCCCCCCCCC[N+](C)(C)CCCCCCCCCC.O=C([O-])CO [Glycolic],1.99,,,
CCCCCCCCCC[N+](C)(C)CCCCCCCCCC.O=[N+]([O-])[O-] [Nitric],1.94,,,
O=P(O)(O)O [Phosphoric],,4.93,greatest level of efficacy,level of efficacy / number of organisms reduced (in words) (listed as phosphoric acid): highest number of organisms reduced
CCCCCCCCCC[N+](C)(C)CCCCCCCCCC.NS(=O)(=O)[O-] [Sulfamic],4.66,,greatest level of efficacy,level of efficacy / number of organisms reduced (in words) (listed as sulfamic acid): highest number of organisms reduced
O=C(O)C(O)C(O)C(=O)O (stereo not drawn) [Tartaric],4.22,3.05,greatest level of efficacy,level of efficacy / number of organisms reduced (in words) (listed as tartaric acid): highest number of organisms reduced
Oxalic,5.54,,greatest level of efficacy,level of efficacy / number of organisms reduced (in words) (listed as oxalic acid): highest number of organisms reduced
Sulfuric,3.14,,,
"didecyl dimethyl ammonium carbonate/bicarbonate [Quat Carbonate, reference compound]",,,,"Log10 Reduction vs. Pa (Quaternium Ammonium Chloride in Acid Solution, 800 ppm Active/375 ppm Hard Water/5% Organic Soil/5 Minute Contact Time): <2.82 Log10"
